Assay results as given in ChEMBL document CHEMBL1124186, “Synthesis and evaluation of tylosin-related macrolides modified at the aldehyde function: a new series of orally effective antibiotics” (1988).
≈ marks a conversion by molar mass, not a printed value.

Tests used:
Staphylococcus aureus = assay: In vitro antimicrobial activity against Staphylococcus aureus X1; format: functional
Streptococcus pneumoniae = assay: In vitro antimicrobial activity against Streptococcus pneumoniae; format: functional
[1] = test system: Staphylococcus epidermidis; assay: In vitro antimicrobial activity against Staphylococcus epidermidis EPI1; format: functional
Enterococcus faecium = assay: In vitro antimicrobial activity against Streptococcus faecium X66; format: functional, streptococcus fae-cium
Streptococcus pyogenes = assay: In vitro antimicrobial activity against Streptococcus pyogenes C203; format: functional
Haemophilus influenzae = assay: In vitro antimicrobial activity against Haemophilus influenzae.; format: functional

Row | SMILES | MIC (Staphylococcus aureus) | MIC (Streptococcus pneumoniae) | MIC [1] | MIC (Enterococcus faecium) | MIC (Streptococcus pyogenes) | MIC (Haemophilus influenzae)
1 | CC[C@H]1OC(=O)C[C@@H](O)[C@H](C)[C@@H](O[C@@H]2O[C@H](C)[C@@H](O[C@H]3C[C@@](C)(O)[C@@H](O)[C@H](C)O3)[C@H](N(C)C)[C@H]2O)[C@@H](C)C[C@@H](C)C(=O)/C=C/C(C)=C/[C@@H]1CO | 64 µg/mL (≈ 89.6 µM) | 64 µg/mL (≈ 89.6 µM) | 16 µg/mL (≈ 22.4 µM) | 128 µg/mL (≈ 179 µM) | 64 µg/mL (≈ 89.6 µM) | > 128 µg/mL
2 | CC[C@H]1OC(=O)C[C@@H](O)[C@H](C)[C@@H](O[C@@H]2O[C@H](C)[C@@H](O[C@H]3C[C@@](C)(O)[C@@H](O)[C@H](C)O3)[C@H](N(C)C)[C@H]2O)[C@@H](CCO)C[C@@H](C)C(=O)/C=C/C(C)=C/[C@@H]1C | 64 µg/mL (≈ 87.9 µM) | 64 µg/mL (≈ 87.9 µM) | 32 µg/mL (≈ 44 µM) | 64 µg/mL (≈ 87.9 µM) | 64 µg/mL (≈ 87.9 µM) | > 128 µg/mL
3 | CC[C@H]1OC(=O)C[C@@H](O)[C@H](C)[C@@H](O[C@@H]2O[C@H](C)[C@@H](O[C@H]3C[C@@](C)(O)[C@@H](O)[C@H](C)O3)[C@H](N(C)C)[C@H]2O)[C@@H](CCOc2cc(Cl)cc(Cl)c2)C[C@@H](C)C(=O)/C=C/C(C)=C/[C@@H]1CO[C@@H]1O[C@H](C)[C@@H](O)[C@@H](OC)[C@H]1OC | 1 µg/mL (≈ 0.941 µM) | 16 µg/mL (≈ 15.1 µM) | 2 µg/mL (≈ 1.88 µM) | > 128 µg/mL | 1 µg/mL (≈ 0.941 µM) | > 128 µg/mL
4 | CC[C@H]1OC(=O)C[C@@H](O)[C@H](C)[C@@H](O[C@@H]2O[C@H](C)[C@@H](O[C@H]3C[C@@](C)(O)[C@@H](O)[C@H](C)O3)[C@H](N(C)C)[C@H]2O)[C@@H](CCF)C[C@@H](C)C(=O)/C=C/C(C)=C/[C@@H]1CO[C@@H]1O[C@H](C)[C@@H](O)[C@@H](OC)[C@H]1OC | 1 µg/mL (≈ 1.09 µM) | 64 µg/mL (≈ 69.6 µM) | 1 µg/mL (≈ 1.09 µM) | > 128 µg/mL | 4 µg/mL (≈ 4.35 µM) | > 128 µg/mL
5 | CC[C@H]1OC(=O)C[C@@H](O)[C@H](C)[C@@H](O[C@@H]2O[C@H](C)[C@@H](O[C@H]3C[C@@](C)(O)[C@@H](O)[C@H](C)O3)[C@H](N(C)C)[C@H]2O)[C@@H](CCOc2ccc([N+](=O)[O-])cc2)C[C@@H](C)C(=O)/C=C/C(C)=C/[C@@H]1CO[C@@H]1O[C@H](C)[C@@H](O)[C@@H](OC)[C@H]1OC | 1 µg/mL (≈ 0.962 µM) | 16 µg/mL (≈ 15.4 µM) | 1 µg/mL (≈ 0.962 µM) | 128 µg/mL (≈ 123 µM) | 2 µg/mL (≈ 1.92 µM) | > 128 µg/mL
6 | CC[C@H]1C[C@@H](C)C(=O)/C=C/C(C)=C/[C@H](CO[C@@H]2O[C@H](C)[C@@H](O)[C@@H](O)[C@H]2OC)[C@@H](CC)OC(=O)C[C@@H](O)[C@H](C)[C@H]1O[C@@H]1O[C@H](C)[C@@H](O)[C@H](N(C)C)[C@H]1O | 0.25 µg/mL (≈ 0.336 µM) | 4 µg/mL (≈ 5.38 µM) | 1.2 µg/mL (≈ 1.61 µM) | 8 µg/mL (≈ 10.8 µM) | 0.5 µg/mL (≈ 0.672 µM) | –

Second part, the compound after the results:

Row | MIC (Staphylococcus aureus) | MIC (Streptococcus pneumoniae) | MIC [1] | MIC (Enterococcus faecium) | MIC (Streptococcus pyogenes) | MIC (Haemophilus influenzae) | SMILES
7 | 0.5 µg/mL (≈ 0.56 µM) | 1 µg/mL (≈ 1.12 µM) | 0.5 µg/mL (≈ 0.56 µM) | 4 µg/mL (≈ 4.48 µM) | 0.25 µg/mL (≈ 0.28 µM) | – | CC[C@H]1OC(=O)C[C@@H](O)[C@H](C)[C@@H](O[C@@H]2O[C@H](C)[C@@H](O)[C@H](N(C)C)[C@H]2O)[C@@H](CCOc2cccc(N(C)C)c2)C[C@@H](C)C(=O)/C=C/C(C)=C/[C@@H]1CO[C@@H]1O[C@H](C)[C@@H](O)[C@@H](OC)[C@H]1OC
8 | 0.25 µg/mL (≈ 0.284 µM) | 1 µg/mL (≈ 1.14 µM) | 0.25 µg/mL (≈ 0.284 µM) | 4 µg/mL (≈ 4.55 µM) | 1 µg/mL (≈ 1.14 µM) | – | CC[C@H]1OC(=O)C[C@@H](O)[C@H](C)[C@@H](O[C@@H]2O[C@H](C)[C@@H](O)[C@H](N(C)C)[C@H]2O)[C@@H](CCOc2ccc(OC)cc2)C[C@@H](C)C(=O)/C=C/C(C)=C/[C@@H]1CO[C@@H]1O[C@H](C)[C@@H](O)[C@@H](OC)[C@H]1OC
9 | 0.25 µg/mL (≈ 0.285 µM) | 0.25 µg/mL (≈ 0.285 µM) | 0.25 µg/mL (≈ 0.285 µM) | 8 µg/mL (≈ 9.11 µM) | 1 µg/mL (≈ 1.14 µM) | – | CC[C@H]1OC(=O)C[C@@H](O)[C@H](C)[C@@H](O[C@@H]2O[C@H](C)[C@@H](O)[C@H](N(C)C)[C@H]2O)[C@@H](CCOCCc2ccccc2)C[C@@H](C)C(=O)/C=C/C(C)=C/[C@@H]1CO[C@@H]1O[C@H](C)[C@@H](O)[C@@H](OC)[C@H]1OC
